Test results reported in ChEMBL document CHEMBL5724914, “Linking interpersonal differences in gut microbiota composition and drug biotransformation activity” (2024).

What was measured:
[1] = (§1) The drug is tested on WLS-370 corresponding to human gut metagenome with ENA study accession number: PRJEB37062 and ENA sample accession number: ERS12561793 for biotransformation under anaerobic condition. The drug concentrations were measured over 9 timepoints collected between 0 and 24 hours of incubation by liquid-chromatography-coupled mass spectrometry (LC–MS); details: 2 µM
[2] = as §1, with “WLS-170” for “WLS-370”, “ERS12561762” for “ERS12561793”; details: 2 µM
[3] = as §1, with “WLS-090” for “WLS-370”, “ERS12561753” for “ERS12561793”; details: 2 µM
[4] = human gut metagenome, 24 h, 2 µM
[5] = human gut metagenome, 24 h, 2 µM; remark: listed apart in the source
[6] = human gut metagenome, 24 h, 2 µM; remark: listed apart in the source
[7] = human gut metagenome, 24 h, 2 µM; remark: listed apart in the source
[8] = human gut metagenome, 24 h, 2 µM; remark: listed apart in the source
[9] = human gut metagenome, 24 h, 2 µM; remark: listed apart in the source
[10] = human gut metagenome, 24 h, 2 µM; remark: listed apart in the source
[11] = human gut metagenome, 24 h, 2 µM; remark: listed apart in the source
[12] = human gut metagenome, 24 h, 2 µM; remark: listed apart in the source
[13] = human gut metagenome, 24 h, 2 µM; remark: listed apart in the source
[14] = human gut metagenome, 24 h, 2 µM; remark: listed apart in the source
[15] = human gut metagenome, 24 h, 2 µM; remark: listed apart in the source
[16] = human gut metagenome, 24 h, 2 µM; remark: listed apart in the source
[17] = as §1, with “Z-004” for “WLS-370”, “to” for “to human gut”, “ERS12561804” for “ERS12561793”; details: 2 µM
[18] = as §1, with “Z-001” for “WLS-370”, “mouse” for “human”, “ERS12561801” for “ERS12561793”; details: 2 µM
Note: call rule not given here.

Bacterial Biotransformation [1] | Bacterial Biotransformation [2] | Bacterial Biotransformation [3] | Bacterial Biotransformation [4] | Bacterial Biotransformation [5] | Bacterial Biotransformation [6] | Bacterial Biotransformation [7] | Bacterial Biotransformation [8] | Bacterial Biotransformation [9] | Bacterial Biotransformation [10] | Bacterial Biotransformation [11] | Bacterial Biotransformation [12] | Bacterial Biotransformation [13] | Bacterial Biotransformation [14] | Bacterial Biotransformation [15] | Bacterial Biotransformation [16] | Bacterial Biotransformation [17] | Bacterial Biotransformation [18] | SMILES
Compound metabolized | Compound metabolized | Compound metabolized | Compound metabolized | Compound metabolized | Compound metabolized | Compound metabolized | Compound metabolized | Compound metabolized | Compound metabolized | Compound metabolized | Compound metabolized | – | Compound metabolized | Compound metabolized | Compound metabolized | – | – | CCOC(=O)C1=C(C)NC(C)=C(C(=O)OC)C1c1cccc([N+](=O)[O-])c1 (configuration not stated) [NITRENDIPINE]
Compound NOT metabolized | Compound metabolized | Compound metabolized | Compound metabolized | Compound metabolized | Compound NOT metabolized | Compound metabolized | Compound NOT metabolized | Compound metabolized | Compound metabolized | Compound NOT metabolized | Compound NOT metabolized | Compound NOT metabolized | Compound NOT metabolized | Compound metabolized | Compound metabolized | – | – | N#Cc1ccc2c(c1)N(CCCN1CCC(O)CC1)c1ccccc1S2 [PERICIAZINE]
Compound metabolized | Compound metabolized | Compound NOT metabolized | Compound NOT metabolized | Compound NOT metabolized | Compound NOT metabolized | – | Compound NOT metabolized | Compound metabolized | Compound NOT metabolized | – | Compound metabolized | Compound NOT metabolized | Compound NOT metabolized | Compound metabolized | Compound NOT metabolized | Compound NOT metabolized | Compound NOT metabolized | CNNCc1ccc(C(=O)NC(C)C)cc1 [PROCARBAZINE]

Further lines, the molecule ahead of its results:

SMILES | Bacterial Biotransformation [1] | Bacterial Biotransformation [2] | Bacterial Biotransformation [3] | Bacterial Biotransformation [4] | Bacterial Biotransformation [5] | Bacterial Biotransformation [6] | Bacterial Biotransformation [7] | Bacterial Biotransformation [8] | Bacterial Biotransformation [9] | Bacterial Biotransformation [10] | Bacterial Biotransformation [11] | Bacterial Biotransformation [12] | Bacterial Biotransformation [13] | Bacterial Biotransformation [14] | Bacterial Biotransformation [15] | Bacterial Biotransformation [16] | Bacterial Biotransformation [17] | Bacterial Biotransformation [18]
CN(C)CCc1c[nH]c2ccc(CS(=O)(=O)N3CCCC3)cc12 [ALMOTRIPTAN] | Compound NOT metabolized | Compound metabolized | Compound metabolized | Compound NOT metabolized | Compound NOT metabolized | Compound NOT metabolized | Compound NOT metabolized | Compound NOT metabolized | Compound metabolized | Compound NOT metabolized | Compound NOT metabolized | Compound NOT metabolized | Compound NOT metabolized | Compound NOT metabolized | Compound metabolized | Compound metabolized | – | –
CCCCC(=O)O[C@]1(C(=O)CO)[C@@H](C)C[C@H]2[C@@H]3CCC4=CC(=O)C=C[C@]4(C)[C@@]3(F)[C@@H](O)C[C@@]21C [BETAMETHASONE VALERATE] | Compound NOT metabolized | Compound metabolized | Compound metabolized | Compound NOT metabolized | Compound metabolized | Compound NOT metabolized | Compound metabolized | Compound metabolized | Compound metabolized | Compound metabolized | Compound NOT metabolized | Compound metabolized | Compound NOT metabolized | Compound NOT metabolized | Compound metabolized | Compound metabolized | – | –
Cc1nc(Nc2ncc(C(=O)Nc3c(C)cccc3Cl)s2)cc(N2CCN(CCO)CC2)n1 [DASATINIB ANHYDROUS] | Compound metabolized | Compound metabolized | Compound metabolized | Compound NOT metabolized | Compound metabolized | Compound NOT metabolized | Compound metabolized | Compound NOT metabolized | Compound metabolized | Compound metabolized | Compound NOT metabolized | Compound metabolized | Compound NOT metabolized | Compound NOT metabolized | Compound metabolized | Compound metabolized | – | –
CNCC[C@H](Oc1cccc2ccccc12)c1cccs1 [DULOXETINE] | Compound NOT metabolized | Compound metabolized | Compound metabolized | Compound NOT metabolized | Compound NOT metabolized | Compound metabolized | Compound NOT metabolized | Compound NOT metabolized | Compound metabolized | Compound NOT metabolized | Compound NOT metabolized | Compound NOT metabolized | Compound NOT metabolized | Compound NOT metabolized | Compound metabolized | Compound metabolized | – | –
CC#CCn1c(N2CCC[C@@H](N)C2)nc2c1c(=O)n(Cc1nc(C)c3ccccc3n1)c(=O)n2C [LINAGLIPTIN] | Compound NOT metabolized | Compound NOT metabolized | Compound NOT metabolized | Compound NOT metabolized | Compound NOT metabolized | Compound NOT metabolized | – | Compound metabolized | Compound NOT metabolized | Compound NOT metabolized | Compound NOT metabolized | Compound NOT metabolized | Compound NOT metabolized | Compound NOT metabolized | Compound NOT metabolized | Compound NOT metabolized | – | –
CN1CCN(C2=Nc3ccccc3Oc3ccc(Cl)cc32)CC1.O=C(O)CCC(=O)O [LOXAPINE SUCCINATE] | Compound NOT metabolized | Compound NOT metabolized | Compound NOT metabolized | Compound NOT metabolized | Compound NOT metabolized | Compound NOT metabolized | Compound NOT metabolized | Compound NOT metabolized | Compound NOT metabolized | Compound NOT metabolized | Compound NOT metabolized | Compound NOT metabolized | Compound NOT metabolized | Compound NOT metabolized | Compound NOT metabolized | Compound NOT metabolized | – | –
